Reference: patent US7544814B2, “[3.2.0] Heterocyclic compounds and methods of using the same” (Nereus Pharmaceuticals, Inc., priority 2004, dated 2009)
Where “and” joins values, the source holds several entries; their conditions need not be identical. Identical values can stand only once. Like-named read-outs stand apart in the source and are kept apart here.

Legend:
[1] = system: U266; assay: Cell growth inhibition (resazurin), U266; conditions: Homo sapiens, U-266, 48 h, read-out: U266 EC50, Table 2; 48 hours drug exposure
[2] = system: NF-κB; assay: NF-κB-mediated luciferase reporter gene assay, HEK293 NF-κB/Luc cells, TNF-α stimulation; type: cell-based, human; conditions: for EC50: Homo sapiens, 1 hr pretreatment, TNF-α 6 hr
Experimental: The HEK293 NF-κB/luciferase reporter cell line is a derivative of the human embryonic kidney cell line (ATCC; CRL-1573) and carries a luciferase reporter gene under the regulation of 5× NF-κB binding sites. […] When performing the luciferase assay, the DMEM basal medium was replaced with phenol-red free DMEM basal medium and the G418 was omitted.
For NF-κB-mediated luciferase assays, HEK293 NF-κB/luciferase cells were seeded at 1.5×10^4 cells/well in 90 μl phenol-red free DMEM complete medium into Corning 3917 white opaque-bottom tissue culture plates. For Formula II-2, Formula II-4, Formula II-5A, and Formula II-18, a 400 μM starting dilution was made in 100% DMSO and this dilution was used to generate a 8-point half log dilution series. […] For Formula II-20, a 2.5 mM or 8 mM starting solution was made in 100% DMSO and the final test concentrations ranged from 6.3 μM to 2.0 nM or 20 μM to 6.3 nM, respectively. The plates were returned to the incubator for 1 hour. After 1 hr pretreatment, 10 μl of a 50 ng/ml TNF-α solution, prepared in the phenol-red free DMEM medium was added, and the plates were incubated for an additional 6 hr.
At the end of the TNF-α stimulation, 100 μl of Steady Lite HTS luciferase reagent (Packard Bioscience) was added to each well and the plates were left undisturbed for 10 min at room temperature before measuring the luciferase activity. The relative luciferase units (RLU) were measured by using a Fusion microplate fluorometer (Packard Bioscience).

[3] = target: T1, caspase-like activity of purified rabbit muscle 20S proteasome (Oryctolagus cuniculus, UniProt A0A5F9DQW2); assay: In vitro inhibition of 20S proteasome caspase-like activity (Z-LLE-AMC)
T1 sequence (A0A5F9DQW2 1-212): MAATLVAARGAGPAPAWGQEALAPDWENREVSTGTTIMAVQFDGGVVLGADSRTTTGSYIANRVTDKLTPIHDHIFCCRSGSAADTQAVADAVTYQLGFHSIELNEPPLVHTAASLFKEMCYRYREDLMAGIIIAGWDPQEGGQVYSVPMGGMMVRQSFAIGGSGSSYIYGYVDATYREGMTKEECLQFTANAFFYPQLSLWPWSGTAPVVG

[4] = target: T2, trypsin-like activity of purified rabbit muscle 20S proteasome (Oryctolagus cuniculus, UniProt G1SWK8); assay: biochemical
T2 sequence (G1SWK8 1-271): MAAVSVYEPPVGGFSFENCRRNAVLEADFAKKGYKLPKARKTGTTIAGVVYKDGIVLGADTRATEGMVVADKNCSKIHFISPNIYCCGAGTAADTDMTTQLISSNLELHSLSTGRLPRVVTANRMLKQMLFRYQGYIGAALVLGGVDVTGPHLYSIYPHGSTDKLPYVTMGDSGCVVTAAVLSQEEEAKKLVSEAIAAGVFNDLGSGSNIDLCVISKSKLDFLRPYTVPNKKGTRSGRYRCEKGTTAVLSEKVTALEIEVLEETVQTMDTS

[5] = system: RPMI 8226; assay: Cell growth inhibition (resazurin), RPMI 8226; conditions: for EC50: 48 hours drug exposure, mean ± SD where n≥3; for cytotoxicity against RPMI 8226, in words: from EC50 values
[6] = target: T3, chymotrypsin-like activity of purified rabbit muscle 20S proteasome (Oryctolagus cuniculus, UniProt G1T4Q9); assay: In vitro inhibition of 20S proteasome chymotrypsin-like activity (suc-LLVY-AMC)
T3 sequence (G1T4Q9 1-263): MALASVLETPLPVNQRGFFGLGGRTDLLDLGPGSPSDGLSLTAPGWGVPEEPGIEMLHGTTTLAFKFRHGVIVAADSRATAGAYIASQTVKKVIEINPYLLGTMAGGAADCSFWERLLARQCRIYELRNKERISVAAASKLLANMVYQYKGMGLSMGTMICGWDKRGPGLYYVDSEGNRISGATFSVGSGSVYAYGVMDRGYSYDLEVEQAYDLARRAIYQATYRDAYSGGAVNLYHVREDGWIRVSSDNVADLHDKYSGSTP

[7] = target: T2, trypsin-like activity of purified rabbit muscle 20S proteasome; assay: In vitro inhibition of 20S proteasome trypsin-like activity (Boc-LRR-AMC); conditions: under the conditions tested
[8] = HEK293, read-out: EC50, NF-κB-mediated luciferase reporter gene assay, Table 5, values in μM
[9] = EC50 Caspase-like, Table 6, values in μM
[10] = Homo sapiens, RPMI-8226, 48 h, read-out: RPMI 8226 EC50, Table 2
[11] = read-out: RPMI 8226 EC50, Table 2
[12] = EC50 Chymotrypsin-like, Table 6, values in nM
[13] = EC50 values, chymotrypsin-like activity, summary of Table 6
[14] = EC50 values, caspase-like activity, range in mixed units, summary of Table 6, range from nM to μM

SMILES	EC50 [3, 9]	EC50 [4]	EC50 [5, 10] [µM]	EC50 [5, 11] [µM]	cytotoxicity against RPMI 8226, in words [5]	EC50 [6, 12]	EC50 [6, 13] [µM]	also measured
C[C@@H]1C(=O)N[C@@]2([C@@H](O)[C@@H]3C=CCCC3)C(=O)O[C@@]12C [Formula II-28]	> 20 µM	> 20 µM	> 20	–	–	–	–	EC50 [1]: > 20 µM; EC50 [2, 8]: > 20 µM; EC50 ([6]; EC50 Chymotrypsin-like, Table 6, values in μM): 3.2 µM and 3.3 µM; EC50 ([6]; EC50 values, chymotrypsin-like activity, range or bound stated in text, summary of Table 6): 1.4 to 10.6 µM
C[C@@]12OC(=O)[C@]1(C(=O)C1=CC(O)CCC1)NC(=O)[C@]2(C)CCCl (some centres unmarked) [Formula II-31]	–	–	> 20	–	–	–	–	–
C[C@@]12OC(=O)[C@]1(C(=O)C1=CC(O)CCC1)NC(=O)[C@]2(C)CCCl (some centres unmarked) [Formula II-32]	–	–	–	> 20	–	–	–	–
C[C@@]12OC(=O)[C@]1([C@@H](O)[C@@H]1C=CCCC1)NC(=O)[C@@H]2CCN=C=S [Formula II-38]	–	–	2.6	1.8	cytotoxic	0.0034 ± 0.0002 µM	0.002 to 0.011	–
COC(=O)CCSC(=O)[C@]1([C@@H](O)[C@@H]2C=CCCC2)NC(=O)[C@H](CCCl)[C@]1(C)O [Formula II-44]	1.4 µM	0.055 µM and 0.054 µM	0.012	0.0088	cytotoxic	0.011 µM and 0.0087 µM	0.002 to 0.011	EC50 ([2]; HEK293, read-out: EC50, NF-κB-mediated luciferase reporter gene assay, Table 5, values in nM): 0.017 ± 0.004 µM; effect on luciferase activity upon TNF-α stimulation, in words ([2]; pretreatment of NF-κB/Luc 293 cells): dose-dependent decrease; EC50 [3, 14]: 0.956 to 8.7 µM; inhibition of the trypsin-like activity of the 20S proteasome, in words [7]: able to inhibit
CC[C@H]1C(=O)N[C@](C(=O)SCCC(=O)OC)([C@@H](O)[C@@H]2C=CCCC2)[C@@]1(C)O [Formula II-47]	–	–	8 ± 3.4	–	cytotoxic	0.05 ± 0.01 µM	0.013 to 0.088	–
COC(=O)C(CSC(=O)[C@]1([C@@H](O)[C@@H]2C=CCCC2)NC(=O)[C@H](CCCl)[C@]1(C)O)NC(C)=O (some centres unmarked) [Formula II-50]	–	–	0.01	–	cytotoxic	–	–	–
COC(=O)CCSC(=O)C1(C(O)C2C=CCCC2)NC(=O)C2CCOC21C (centres unmarked) [Formula VI-1A]	7.9 µM and 8.7 µM	3.1 µM and 3 µM	8.4	7.8	cytotoxic	0.274 µM and 0.207 µM	0.207 to 0.964	EC50 [2, 8]: > 20 µM; EC50 [3, 14]: 0.956 to 8.7 µM; inhibition of the trypsin-like activity of the 20S proteasome, in words [7]: able to inhibit
